Results published in patent US20110201578A1, “COMPOSITION AND METHODS FOR THE TREATMENT OF PSEUDOFOLLICULITIS BARBAE AND SKIN IRRITATION” (priority 2010, published 2011).

What was measured:
[1] = pH of the acidic solution of the substance used by itself; type: physicochemical; conditions: acetylsalicyclic acid by itself, unbuffered
[2] = system: skin; assay: Application to skin, detrimental effects; type: in vivo; conditions: used by itself, applied to skin; hours and/or days following application
Source text: The low pKa results in an acidic solution having a pH of about 1.9, which damages skin and results in skin peeling in the hours and/or days following application to skin.

pH of resulting acidic solution [1]: about 1.9 | effect on skin [2]: acts as a skin peeler
SMILES: CC(=O)Oc1ccccc1C(=O)O [acetylsalicyclic acid]
